# Reference: the supplement of paper PMC10307832
# Assays:
# Experiment in all cases: relative viability (nuclei count vs DMSO), 5 days (fraction); higher = more cells survive
# [1] = compound: CN1C=C(C2=CC=CC=C21)/C=C\3/C4=C(C=CC=N4)NC3=O + Nc1nc2[nH]cc(CCc3ccc(C(=O)N[C@@H](CCC(=O)O)C(=O)O)cc3)c2c(=O)[nH]1 [Pemetrexed] (partner 0.2 µM)
# In short: (§1)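 One day after seeding in 1536-well plates, lung cancer cell lines were dosed by pin tool. Dosing was either single-drug or a fixed anchor-drug dose plus five library-drug doses (not always all listed) in √10 steps. After 5 days, nuclei were stained in one fix-and-stain step and counted on 4× images, and relative viability is the nuclei count of treated wells over that of vehicle wells, given as the median of duplicate plates.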
# Trametinib + Dasatinib = compound: CC(=O)Nc1cccc(-n2c(=O)n(C3CC3)c(=O)c3c(Nc4ccc(I)cc4F)n(C)c(=O)c(C)c32)c1 [Trametinib] + Cc1nc(Nc2ncc(C(=O)Nc3c(C)cccc3Cl)s2)cc(N2CCN(CCO)CC2)n1 [Dasatinib] (partner 0.075 µM)
# In short: as §1
# [2] = compound: CN1C=C(C2=CC=CC=C21)/C=C\3/C4=C(C=CC=N4)NC3=O + CC(C)C[C@H](NC(=O)[C@H](Cc1ccccc1)NC(=O)c1cnccn1)B(O)O [Bortezomib] (partner 0.002 µM)
# In short: as §1
# Trametinib + OSI-027 = compound: CC(=O)Nc1cccc(-n2c(=O)n(C3CC3)c(=O)c3c(Nc4ccc(I)cc4F)n(C)c(=O)c(C)c32)c1 [Trametinib] + COc1cccc2cc(-c3nc([C@H]4CC[C@H](C(=O)O)CC4)n4ncnc(N)c34)[nH]c12 [OSI-027] (partner 0.5 µM)
# In short: as §1
cell line,measurement,setting,value
UMC-11,relative viability,[1]; first compound 0.02 µM,0.655
same,relative viability,[1]; first compound 0.06325 µM,0.744
same,relative viability,[1]; first compound 0.2 µM,0.801
same,relative viability,[1]; first compound 0.6325 µM,0.857
same,relative viability,[1]; first compound 2 µM,0.936
same,relative viability,Trametinib + Dasatinib; first compound 0.0025 µM,0.446
same,relative viability,Trametinib + Dasatinib; first compound 0.007906 µM,0.509
same,relative viability,Trametinib + Dasatinib; first compound 0.025 µM,0.385
same,relative viability,Trametinib + Dasatinib; first compound 0.07906 µM,0.491
same,relative viability,Trametinib + Dasatinib; first compound 0.25 µM,0.49
same,relative viability,[2]; first compound 0.02 µM,0.668
same,relative viability,[2]; first compound 0.06325 µM,0.263
same,relative viability,[2]; first compound 0.2 µM,0.572
same,relative viability,[2]; first compound 0.6325 µM,0.761
same,relative viability,[2]; first compound 2 µM,0.926
same,relative viability,Trametinib + OSI-027; first compound 0.0025 µM,0.478
same,relative viability,Trametinib + OSI-027; first compound 0.007906 µM,0.403
same,relative viability,Trametinib + OSI-027; first compound 0.025 µM,0.291
same,relative viability,Trametinib + OSI-027; first compound 0.07906 µM,0.414
same,relative viability,Trametinib + OSI-027; first compound 0.25 µM,0.406
